Assay results from patent US20230272016A1, “PEPTIDES FOR IMMUNOTHERAPY” (Second Genome, Inc., priority 2020, published 2023).

System: human T cells
Assay: Human T cell activation assay (anti-CD3 plus peptide, cytokine secretion)
Type: cell-based
Protocol: FIGS. 11 and 12 show 150 peptide variants of the SG-3-0020 1-29 aa N-terminal+middle region, derived from a combinatorial phage display library, were tested for activation potential of human T cells. […] Increase in cytokine secretion was concordant in 3 donors.
For example, PBMCs were obtained from individual human donors.
T-cell activation was also determined as described previously (see above and International Application No. PCT/US2020/012431). […] Separate N-, MID, and C-terminal fragments lose activity. The data support that both N- and middle region are minimally required for binding and activation to T cells.

[1] = Table 11, 150 combinatorial library variants of SEQ ID NO:1
[2] = Table 10, combinatorial library variants of SEQ ID NO:1

| Substance | mean_ES_IFN-γ [1] | mean_ES_IFN-γ [2] |
| --- | --- | --- |
| FASAAKGKTHDHWGSGRYRPPPWHDWRGS [SEQ ID NO: 244] | 0.9882 |  |
| FASAAKGKTHDHYPGGRMRPPPWHDWRFS [SEQ ID NO: 254] | 0.9426 |  |
| FASAAKGKTHDHYPSGRYRPPPWHDWRAS [SEQ ID NO: 298] | 0.6625 |  |
| FASAAKGKTHDHYWSGRYRPPPWHDWRAS [SEQ ID NO: 33] | 1.036 | 1.036 |
| FASGAKGKTHDHNWGGRYRDPGWHDWRAS [SEQ ID NO: 281] | 0.7548 |  |
| FASGAKGKTHDHYPSGRHRPPPWHDWRAS [SEQ ID NO: 316] | 0.5231 |  |
| FGSAAKGKTHDHWPSGRHRDPGWHDWRFS [SEQ ID NO: 23] | 1.129 | 1.129 |
| FGSAAKGKTHDHYWSGRMRPPPWHDWRGS [SEQ ID NO: 34] | 1.028 | 1.028 |
| FGSGAKGKTHDHWGGGRHRPPPWHDWRGS [SEQ ID NO: 6] | 1.321 | 1.321 |
| FGSGAKGKTHDHYPSGRMRPPPWHDWRVR [SEQ ID NO: 7] | 1.319 | 1.319 |
| FLSAAKGKTHDHNWGGRMRPPPWHDWRFS [SEQ ID NO: 255] | 0.935 |  |
| FLSGAKGKTHDHYPSGRYRPPPWHDWRAR [SEQ ID NO: 15] | 1.193 | 1.193 |
| FPSGAKTKWHDHNPSGRMRDPPWHDWRFS [SEQ ID NO: 306] | 0.6024 |  |
| FPSGAKTKWHDHNPSGRMRDPPWHDWRFSa [SEQ ID NO: 273] | 0.8203 |  |
| FQSTAKGKTHDHWPSGRMRPPPWHDWRAS [SEQ ID NO: 267] | 0.8487 |  |
| FSSAAKGKWHDHWPGGRYRDPPWHDWRVS [SEQ ID NO: 14] | 1.215 | 1.215 |
| FSSAAKTKWHDHYGSGRYRPPPWHDWRFS [SEQ ID NO: 355] | −0.4086 |  |
| FVSAAKGKTHDHYPSGRYRPPPWHDWRAR [SEQ ID NO: 25] | 1.088 | 1.088 |
| FVSGAKGKWHDHWPSGRWRDPPWHDWRAS [SEQ ID NO: 10] | 1.26 | 1.26 |

| Substance | mean_ES_IFN-γ [1] | mean_ES_IFN-γ [2] |
| --- | --- | --- |
| FVSTAKGKTHDHNWSGRMRPPPWHDWRGR [SEQ ID NO: 248] | 0.9668 |  |
| MASAAKGKTHDHYPGGRMRPPPWHDWRAS [SEQ ID NO: 252] | 0.9483 |  |
| MASAAKGKTHDHYPSGRMRPPPWHDWRFS [SEQ ID NO: 263] | 0.8848 |  |
| MASAAKGKWHDHNPSGRHRDPGWHDWWGS [SEQ ID NO: 288] | 0.7207 |  |
| MASAAKGKWHDHWGSGRHRPPPWHDWRVS [SEQ ID NO: 11] | 1.237 | 1.237 |
| MASAAKTKWHDHYPSGRMRPPPWHDWRAR [SEQ ID NO: 27] | 1.075 | 1.075 |
| MASGAKGKTHDHNWSGRMRPPPWHDWRGR [SEQ ID NO: 245] | 0.9801 |  |
| MASGAKGKTHDHYPGGRMRPPPWHDWRAR [SEQ ID NO: 287] | 0.7208 |  |
| MASGAKGKWHDHYGGGRMRDPGWHDWRFS [SEQ ID NO: 342] | 0.2325 |  |
| MASTAKGKTHDHWPGGRMRPPPWHDWRGS [SEQ ID NO: 320] | 0.5063 |  |
| MASTAKGKTHDHYGGGRMRPPPWHDWRVR [SEQ ID NO: 314] | 0.5458 |  |
| MGSAAKGKTHDHYPSGRMRPPPWHDWRGS [SEQ ID NO: 349] | −0.09755 |  |
| MGSAAKGKWHDHNGSGRMRPPPWHDWRAR [SEQ ID NO: 279] | 0.7782 |  |
| MGSAAKGKWHDHYGSGRMRPPPWHDWRVR [SEQ ID NO: 262] | 0.8865 |  |
| MGSAAKGKWHDHYPGGRHRDPPWHDWRAS [SEQ ID NO: 319] | 0.5086 |  |
| MGSAAKTKWHDHYGGGRMRPPPWHDWRAR [SEQ ID NO: 247] | 0.9744 |  |
| MGSAAKTKWHDHYPGGRMRPPPWHDWRFS [SEQ ID NO: 337] | 0.2836 |  |
| MGSGAKGKTHDHNWGGRHRDPGWHDWWVS [SEQ ID NO: 285] | 0.7319 |  |
